Test results reported in ChEMBL document CHEMBL3813687, “A combined ligand- and structure-based approach for the identification of rilmenidine-derived compounds which synergize the antitumor effects of doxorubicin” (Bioorg Med Chem, 2016).
Values belong to the molecule of their own block, whether it stands above or below them. Activity calls are given as the source filed them. No cut-off for these calls is given here.

Assays:
[1] = Displacement of [3H]-clonidine from Imidazoline-1 receptor in bovine adrenal medullary plasma membrane incubated for 40 mins in presence of RX821002; design: species or system Bos taurus
[2] = biological target: T1, Alpha-2A adrenergic receptor (Homo sapiens, UniProt P08913); test: Displacement of [3H]RS-79948-197 from recombinant human alpha2A adrenoreceptor expressed in CHOK1 cell membrane by scintillation counting method; type: cell membranes, CHO-K1; settings: read-out: Ki(app)
T1 sequence (P08913 whole entry): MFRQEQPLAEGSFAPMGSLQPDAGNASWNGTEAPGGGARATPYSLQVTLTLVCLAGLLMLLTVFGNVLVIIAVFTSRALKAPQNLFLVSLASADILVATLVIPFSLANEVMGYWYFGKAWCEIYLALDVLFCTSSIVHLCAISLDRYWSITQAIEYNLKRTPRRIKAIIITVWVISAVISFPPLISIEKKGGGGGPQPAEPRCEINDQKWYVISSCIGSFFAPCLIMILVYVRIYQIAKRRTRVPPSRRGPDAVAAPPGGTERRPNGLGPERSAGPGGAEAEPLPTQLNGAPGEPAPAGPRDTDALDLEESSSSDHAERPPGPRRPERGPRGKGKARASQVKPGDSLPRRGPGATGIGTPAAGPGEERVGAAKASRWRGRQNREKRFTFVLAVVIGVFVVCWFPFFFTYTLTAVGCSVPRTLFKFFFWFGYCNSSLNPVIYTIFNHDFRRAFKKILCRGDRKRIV

[3] = Displacement of [3H]-clonidine from Imidazoline-1 receptor in bovine chromaffin cell membranes incubated for 40 mins in presence of RX821002; design: species or system Bos taurus
K562 [4] = test: Antiproliferative activity against human K562 cells assessed as inhibition of cell survival after 48 hrs by MTT assay; type: functional, cell-based; settings: K562, 48 h
[5] = biological target: T1, Alpha-2A adrenergic receptor; test: Intrinsic activity at recombinant human alpha2A adrenoreceptor expressed in CHOK1 cell membrane incubated for 30 mins by [35S]GTPgammaS binding assay relative to adrenaline; type: cell membranes; settings: CHO-K1, human, 0.5 h; read-out: Intrinsic activity
K562 [6] = test: Potentiation of doxorubicin-induced apoptosis in human K562 cells assessed as early apoptotic cells at 50 uM after 48 hrs by Annexin V-FITC/propidium iodide staining based flow cytometry relative to control; type: functional
[7] = biological target: T1, Alpha-2A adrenergic receptor
Description: Agonist activity at recombinant human alpha2A adrenoreceptor expressed in CHOK1 cell membrane incubated for 30 mins by [35S]GTPgammaS binding assay

K562 [8] = test: Induction of apoptosis in human K562 cells assessed as early apoptotic cells at 50 uM after 48 hrs by Annexin V-FITC/propidium iodide staining based flow cytometry (reference value: 5%); type: functional
Nischarin [9] = biological target: T2, Nischarin (Rattus norvegicus, UniProt Q4G017); test: Displacement of [125I]PIC from Imidazoline-1 receptor in rat PC12 cell membrane incubated for 30 mins by gamma counting method; type: cell membranes, PC-12
T2 sequence (Q4G017 whole entry): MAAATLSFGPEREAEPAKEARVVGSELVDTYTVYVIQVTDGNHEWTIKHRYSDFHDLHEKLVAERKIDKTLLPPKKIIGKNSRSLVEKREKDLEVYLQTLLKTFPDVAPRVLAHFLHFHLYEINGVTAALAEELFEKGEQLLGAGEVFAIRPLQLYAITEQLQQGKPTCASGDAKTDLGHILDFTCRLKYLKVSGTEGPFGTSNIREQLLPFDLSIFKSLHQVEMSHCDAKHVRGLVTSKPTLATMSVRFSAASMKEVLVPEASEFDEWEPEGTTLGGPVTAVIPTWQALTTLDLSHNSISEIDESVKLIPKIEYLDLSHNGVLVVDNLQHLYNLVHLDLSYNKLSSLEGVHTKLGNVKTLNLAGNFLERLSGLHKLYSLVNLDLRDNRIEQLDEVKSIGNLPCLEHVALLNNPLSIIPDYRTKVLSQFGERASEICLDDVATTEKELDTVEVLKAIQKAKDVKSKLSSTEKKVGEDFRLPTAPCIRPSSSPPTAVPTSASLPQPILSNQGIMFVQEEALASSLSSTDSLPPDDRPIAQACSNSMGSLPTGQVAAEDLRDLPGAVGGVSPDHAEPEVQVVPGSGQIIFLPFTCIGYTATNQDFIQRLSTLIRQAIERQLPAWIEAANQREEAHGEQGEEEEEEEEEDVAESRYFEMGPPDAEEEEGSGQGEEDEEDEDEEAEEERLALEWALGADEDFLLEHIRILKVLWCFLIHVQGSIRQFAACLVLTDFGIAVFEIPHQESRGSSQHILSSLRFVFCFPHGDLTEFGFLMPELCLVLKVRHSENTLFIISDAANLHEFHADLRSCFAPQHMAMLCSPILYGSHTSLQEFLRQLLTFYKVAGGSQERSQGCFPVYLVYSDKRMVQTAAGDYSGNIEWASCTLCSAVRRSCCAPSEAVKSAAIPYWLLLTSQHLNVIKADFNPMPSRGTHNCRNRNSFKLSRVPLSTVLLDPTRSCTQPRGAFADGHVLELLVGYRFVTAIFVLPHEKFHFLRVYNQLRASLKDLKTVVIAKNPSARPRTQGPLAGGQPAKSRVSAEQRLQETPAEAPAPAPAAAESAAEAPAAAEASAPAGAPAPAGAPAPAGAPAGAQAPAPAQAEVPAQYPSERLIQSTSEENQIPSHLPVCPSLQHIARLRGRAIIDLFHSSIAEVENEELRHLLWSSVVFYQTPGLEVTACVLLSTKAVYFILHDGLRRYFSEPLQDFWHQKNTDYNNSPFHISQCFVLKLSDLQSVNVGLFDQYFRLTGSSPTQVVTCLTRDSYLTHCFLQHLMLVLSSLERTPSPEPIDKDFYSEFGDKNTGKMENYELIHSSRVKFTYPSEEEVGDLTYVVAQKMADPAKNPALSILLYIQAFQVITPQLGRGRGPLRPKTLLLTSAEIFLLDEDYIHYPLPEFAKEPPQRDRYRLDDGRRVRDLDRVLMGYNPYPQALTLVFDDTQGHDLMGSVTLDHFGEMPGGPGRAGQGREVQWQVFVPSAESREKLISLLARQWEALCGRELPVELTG

Nischarin [10] = biological target: T2, Nischarin; test: Displacement of [125I]PIC from Imidazoline-1 receptor in rat PC12 cell membrane by gamma counting method; type: cell membranes, PC-12
K562 [11] = test: Potentiation of 0.7 uM doxorubicin-induced cytotoxicity in human K562 cells assessed as combination index at 50 uM after 48 hrs by MTT assay relative to control; type: functional
K562 [12] = test: Inhibition of colony formation in human K562 cells after 24 hrs by clonogenic assay; type: functional, cell-based
K562 [13] = test: Potentiation of 1 uM doxorubicin-induced cytotoxicity in human K562 cells assessed as combination index at 70 uM after 48 hrs by MTT assay relative to control; type: functional
K562 [14] = test: Potentiation of 1 uM doxorubicin-induced cytotoxicity in human K562 cells assessed as inhibition of cell survival at 70 uM after 48 hrs by MTT assay relative to control; type: functional
[15] = biological target: Proto-oncogene tyrosine-protein kinase Src (Homo sapiens) (UniProt P12931); test: Inhibition of recombinant human N-terminal poly His/GST-tagged SRC expressed in baculovirus infected insect cells using KVEKIGEGTYGVVYK peptide substrate assessed as residual activity at 100 uM in presence of NP40 by [gamma32P]ATP filter binding assay relative to control
Chain of Proto-oncogene tyrosine-protein kinase Src (Homo sapiens) (P12931 2-536 limits assumed): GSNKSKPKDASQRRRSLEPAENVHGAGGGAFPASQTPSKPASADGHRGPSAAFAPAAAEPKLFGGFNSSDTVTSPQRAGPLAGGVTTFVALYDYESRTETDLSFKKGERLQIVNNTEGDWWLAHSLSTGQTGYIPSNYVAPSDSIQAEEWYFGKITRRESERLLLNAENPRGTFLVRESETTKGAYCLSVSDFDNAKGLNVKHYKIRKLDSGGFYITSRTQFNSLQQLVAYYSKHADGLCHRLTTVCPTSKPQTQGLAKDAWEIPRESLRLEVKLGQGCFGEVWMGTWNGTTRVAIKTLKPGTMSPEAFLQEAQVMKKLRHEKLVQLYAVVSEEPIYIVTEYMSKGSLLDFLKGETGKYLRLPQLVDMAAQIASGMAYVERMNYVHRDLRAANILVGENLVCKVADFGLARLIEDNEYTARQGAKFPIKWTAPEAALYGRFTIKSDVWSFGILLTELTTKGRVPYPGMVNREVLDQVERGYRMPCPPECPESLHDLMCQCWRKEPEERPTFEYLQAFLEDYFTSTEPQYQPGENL

K562 [16] = test: Cell cycle arrest in human K562 cells assessed as accumulation at S phase at 70 uM after 48 hrs by propidium iodide staining based flow cytometry (reference value: 29%); type: functional
K562 [17] = test: Potentiation of 1.4 uM doxorubicin-induced cytotoxicity in human K562 cells assessed as combination index at 100 uM after 48 hrs by MTT assay relative to control; type: functional
K562 [18] = test: Induction of apoptosis in human K562 cells assessed as early apoptotic cells at 70 uM after 48 hrs by Annexin V-FITC/propidium iodide staining based flow cytometry (reference value: 5%); type: functional
K562 [19] = test: Potentiation of doxorubicin-mediated cell cycle arrest in human K562 cells assessed as increase in sub-G1 cell population after 48 hrs by propidium iodide staining based flow cytometry; type: functional
[20] = biological target: Tyrosine-protein kinase ABL1 (Homo sapiens) (UniProt P00519); test: Inhibition of recombinant human N-terminal His-tagged ABL expressed in baculovirus infected sf9 cells using abtide as substrate assessed as residual activity at 100 uM in presence of NP40 by [gamma32P]ATP filter binding assay relative to control
Chain of Tyrosine-protein kinase ABL1 (Homo sapiens) (P00519 whole entry): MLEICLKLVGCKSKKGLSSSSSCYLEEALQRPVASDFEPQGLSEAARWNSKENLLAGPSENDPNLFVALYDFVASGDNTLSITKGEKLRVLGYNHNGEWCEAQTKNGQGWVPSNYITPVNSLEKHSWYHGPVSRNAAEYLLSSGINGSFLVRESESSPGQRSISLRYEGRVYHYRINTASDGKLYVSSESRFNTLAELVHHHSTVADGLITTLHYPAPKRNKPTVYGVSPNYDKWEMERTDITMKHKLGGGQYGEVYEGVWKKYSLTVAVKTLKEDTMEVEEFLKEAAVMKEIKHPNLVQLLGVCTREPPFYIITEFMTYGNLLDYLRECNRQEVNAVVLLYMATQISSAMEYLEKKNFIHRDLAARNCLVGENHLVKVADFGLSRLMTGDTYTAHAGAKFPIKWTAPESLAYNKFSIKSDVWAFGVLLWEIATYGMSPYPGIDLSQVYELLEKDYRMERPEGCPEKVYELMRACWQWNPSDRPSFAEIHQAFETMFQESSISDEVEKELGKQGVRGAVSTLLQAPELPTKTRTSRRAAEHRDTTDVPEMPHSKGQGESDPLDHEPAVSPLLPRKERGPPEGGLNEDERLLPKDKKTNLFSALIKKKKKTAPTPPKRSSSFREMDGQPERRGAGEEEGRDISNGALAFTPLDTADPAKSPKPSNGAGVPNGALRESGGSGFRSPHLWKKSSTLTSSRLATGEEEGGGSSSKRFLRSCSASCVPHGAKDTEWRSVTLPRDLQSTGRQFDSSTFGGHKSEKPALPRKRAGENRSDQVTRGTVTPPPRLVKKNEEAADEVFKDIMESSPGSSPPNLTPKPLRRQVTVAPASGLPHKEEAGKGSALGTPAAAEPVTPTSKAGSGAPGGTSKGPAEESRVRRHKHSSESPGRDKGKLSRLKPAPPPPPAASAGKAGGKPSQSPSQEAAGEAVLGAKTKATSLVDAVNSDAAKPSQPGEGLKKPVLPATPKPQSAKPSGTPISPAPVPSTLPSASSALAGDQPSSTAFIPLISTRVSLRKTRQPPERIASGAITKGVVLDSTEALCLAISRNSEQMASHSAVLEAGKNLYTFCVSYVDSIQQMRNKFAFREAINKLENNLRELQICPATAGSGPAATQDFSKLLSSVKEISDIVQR

K562 [21] = test: Potentiation of doxorubicin-mediated cell cycle arrest in human K562 cells assessed as decrease in G2/M cell population after 48 hrs by propidium iodide staining based flow cytometry; type: functional
[22] = biological target: Tyrosine-protein kinase ABL1 (Homo sapiens) (UniProt P00519); test: Inhibition of recombinant human N-terminal His-tagged ABL expressed in baculovirus infected sf9 cells using abtide as substrate assessed as residual activity at 100 uM by [gamma32P]ATP filter binding assay relative to control
K562 [23] = test: Potentiation of doxorubicin-induced apoptosis in human K562 cells assessed as necrotic cells at 70 uM after 48 hrs by Annexin V-FITC/propidium iodide staining based flow cytometry (reference value: 1%); type: functional
K562 [24] = test: Potentiation of 0.36 uM doxorubicin-induced cytotoxicity in human K562 cells assessed as inhibition of cell survival at 25 uM after 48 hrs by MTT assay relative to control; type: functional
K562 [25] = test: Induction of apoptosis in human K562 cells assessed as late apoptotic cells at 70 uM after 48 hrs by Annexin V-FITC/propidium iodide staining based flow cytometry (reference value: 1%); type: functional
K562 [26] = test: Cell cycle arrest in human K562 cells assessed as accumulation at G2/M phase at 70 uM after 48 hrs by propidium iodide staining based flow cytometry (reference value: 26%); type: functional
K562 [27] = test: Antiproliferative activity against human K562 cells at 70 uM after 24 hrs by clonogenic assay relative to control; type: functional; settings: K562, 24 h, read-out: GI
K562 [28] = test: Potentiation of doxorubicin-induced apoptosis in human K562 cells assessed as early apoptotic cells at 70 uM after 48 hrs by Annexin V-FITC/propidium iodide staining based flow cytometry (reference value: 5%); type: functional
K562 [29] = test: Cell cycle arrest in human K562 cells assessed as accumulation at sub-G1 phase at 70 uM after 48 hrs by propidium iodide staining based flow cytometry (reference value: 3%); type: functional
K562 [30] = test: Potentiation of 1.4 uM doxorubicin-induced cytotoxicity in human K562 cells assessed as inhibition of cell survival at 100 uM after 48 hrs by MTT assay relative to control; type: functional
K562 [31] = test: Cell cycle arrest in human K562 cells assessed as accumulation at G0/G1 phase at 70 uM after 48 hrs by propidium iodide staining based flow cytometry (reference value: 42%); type: functional
K562 [32] = test: Potentiation of 0.7 uM doxorubicin-induced cytotoxicity in human K562 cells assessed as inhibition of cell survival at 50 uM after 48 hrs by MTT assay relative to control; type: functional
[33] = biological target: Proto-oncogene tyrosine-protein kinase Src (Homo sapiens) (UniProt P12931); test: Inhibition of recombinant human N-terminal poly His/GST-tagged SRC expressed in baculovirus infected insect cells using KVEKIGEGTYGVVYK peptide substrate assessed as residual activity at 100 uM by [gamma32P]ATP filter binding assay relative to control
K562 [34] = test: Potentiation of doxorubicin-induced apoptosis in human K562 cells assessed as late apoptotic cells at 70 uM after 48 hrs by Annexin V-FITC/propidium iodide staining based flow cytometry (reference value: 1%); type: functional
K562 [35] = test: Potentiation of 0.36 uM doxorubicin-induced cytotoxicity in human K562 cells assessed as combination index at 25 uM after 48 hrs by MTT assay relative to control; type: functional
K562 [36] = test: Induction of apoptosis in human K562 cells assessed as necrotic cells at 70 uM after 48 hrs by Annexin V-FITC/propidium iodide staining based flow cytometry (reference value: 1%); type: functional

SMILES: NC1=NCC(COc2ccccc2Br)O1 (centres undefined)
- pKi [1]: 8.19

SMILES: CCC1(c2cnc[nH]2)Cc2ccccc2C1 [ATIPAMEZOLE]
- Ki [2]: 0.0012 µM

SMILES: CC1CCN=C1NC(C1CC1)C1CC1 (centres undefined)
- pKi [3]: 4

SMILES: CCC1CCC(NC(C2CC2)C2CC2)=N1 (centres undefined)
- pKi [3]: 6.77

SMILES: Cc1ccc(F)c(C2=NCCN2)c1
- pKi [1]: 8.28

SMILES: Cc1cc(NCCC(C)C)cc(=O)n1Cc1ccccc1
- IC50 (K562 [4]): > 300 µM
- Ki [2]: 110 µM
- Emax [5]: -2%

SMILES: c1ccc([C@H]2C[C@@H]2C2=NCCN2)cc1
- Ki (Nischarin [10]): 0.347 µM

SMILES: N#CSc1ccc2oc(C3=NCCN3)cc2c1
- pKi [3]: 5.6

SMILES: c1ccc2c(c1)OCC(C1=NCCN1)O2 (centres undefined) [IDAZOXAN]
- Ki (Nischarin [10]): 1.26 µM

SMILES: CN1CCCCC1CCn1c2ccccc2c2ccccc21 (centres undefined)
- Ratio (K562 [11]): 0.511
- inhibition (K562 [12]): Dose-dependent effect
- Ratio (K562 [13]): 0.617
- IC50 (K562 [4]): 70 µM
- inhibition (INH) (K562 [14]): 72.21%
- Activity [15]: 96%
- Activity (K562 [16]): 16%
- Ratio (K562 [17]): 0.688
- Activity (K562 [18]): 40%
- Activity (K562 [19]): Active
- Ki [2]: 1.2 µM
- Activity [20]: 100%
- Activity (K562 [21]): Active
- Activity [22]: 94%
- Activity (K562 [23]): 1%
- inhibition (INH) (K562 [24]): 45.75%
- Activity (K562 [25]): 13%
- Activity (K562 [26]): 10%
- inhibition of growth at 70 µM (K562 [27]): 88%
- Activity (K562 [28]): 64%
- Activity (K562 [29]): 44%
- inhibition (INH) (K562 [30]): 78.21%
- Emax [5]: -3%
- Activity (K562 [31]): 30%
- inhibition (INH) (K562 [32]): 68.62%
- Activity [33]: 100%
- Activity (K562 [34]): 2%
- Ratio (K562 [35]): 0.877
- Activity (K562 [36]): 9%

Now from value to molecule, other results behind:

- Ki [2]: 11 µM
- Emax [5]: -6%
SMILES: CN1CCCCC1CCn1cnc2ccccc21 (centres undefined)
- IC50 (K562 [4]): > 300 µM

- Ki [2]: 0.3 µM
- EC50 [7]: 0.178 µM
- Emax [5]: 54%
- Ki (Nischarin [9]): 0.0126 µM
SMILES: C1COC(NC(C2CC2)C2CC2)=N1 [RILMENIDINE]
- IC50 (K562 [4]): 65 µM
- Activity (K562 [6]): 44%
- Activity (K562 [8]): 20%

- Ki (Nischarin [9]): 0.00562 µM
SMILES: CC(Oc1c(Cl)cccc1Cl)C1=NCCN1 (centres undefined) [LOFEXIDINE]

- Ki [2]: 27 µM
- Emax [5]: -10%
SMILES: Cc1cc(NCc2ccccc2)cc(=O)n1CCC(C)C
- IC50 (K562 [4]): > 300 µM

- Ki [2]: 52 µM
- Emax [5]: -17%
SMILES: Cc1cc(NCCC(C)C)cc(=O)n1CCC(C)C
- IC50 (K562 [4]): 128 µM

- Ki [2]: 41 µM
- Emax [5]: -12%
SMILES: CCCCCn1c(C)cc(NCc2ccccc2)cc1=O
- IC50 (K562 [4]): > 300 µM

- pKi [1]: 8.53
SMILES: COC1=CCCC=C1C1=NCCN1

- Ki [2]: 58 µM
- Emax [5]: -6%
SMILES: Cc1cc(NCc2ccc(C(F)(F)F)cc2)cc(=O)n1CC(C)C
- IC50 (K562 [4]): 222 µM
